Results published in patent US8722731B2, “Furanyl compounds and the use thereof” (NovoMedix, LLC, priority 2010, dated 2014).

Assays:
[1] = system: A549; experiment: IC50 cell-based assay, adherent cells, A549; settings: Homo sapiens, Lung, NSCLC, 72 hours, read-out: IC50 of Compounds in Adherent Cell Types
Experimental: (§1) In one embodiment, the IC50s of the compounds provided herein were determined in cell-based assays using adherent cells. In one embodiment, the activity of the compounds provided herein were determined in a cell-based assay using the triple negative breast cancer cell line MDA-MB-468. In one embodiment, the adherent cells used in the cell-based assays may be a cell type selected from Table 1. In one embodiment, the cell-based assay may be carried out as provided herein. On day 0, cells were seeded at 20,000 cells per well in 100 µL of media into individual wells of a 96-well tissue culture plate. The next day, compounds were diluted to twice the desired final concentration and added in 100 µL of media for a final volume of 200 μL. Standard solutions for each compound were prepared at 1000× concentration in DMSO. The highest concentration was 30 mM. Serial 1:1 dilutions were made from there for a 6- or 9-point curve (e.g., 30 mM, 15 mM, 7.5 mM, etc). Compounds were then diluted 1:500 in media, and 100 µL of the resulting solution was added to each well for a final dilution of 1:1000. Each concentration of compound was tested in triplicate. Cells were incubated at 37° C. with 5% CO2. After 72 hours, 20 μL of CellTiter 96 Aqueous One Solution Cell Proliferation Assay (Promega) was added to each well. Cells were placed back in the incubator, and the absorbance at 490 nm was read after 2-3 hours. The concentration of compound that decreased the number of metabolically active cells by 50% was determined and reported as the IC50. “Percent Viability” was determined by subtracting the average background value (media only) and expressed as a ratio to the average value obtained from cells treated with only DMSO.

[2] = system: Panc-1; experiment: IC50 cell-based assay, adherent cells, Panc-1; settings: Homo sapiens, Pancreas, epitheloid carcinoma, 72 hours, read-out: IC50 of Compounds in Adherent Cell Types
Experimental: as §1

[3] = system: Mia PaCa-2; experiment: IC50 cell-based assay, adherent cells, Mia PaCa-2; settings: Homo sapiens, Pancreas, carcinoma, 72 hours, read-out: IC50 of Compounds in Adherent Cell Types
Experimental: (§2) In one embodiment, the IC50s of the compounds provided herein were determined in cell-based assays using adherent cells. In one embodiment, the activity of the compounds provided herein were determined in a cell-based assay using the triple negative breast cancer cell line MDA-MB-468. In one embodiment, the adherent cells used in the cell-based assays may be a cell type selected from Table 1. In one embodiment, the cell-based assay may be carried out as provided herein. On day 0, cells were seeded at 20,000 cells per well in 100 µL of media into individual wells of a 96-well tissue culture plate. The next day, compounds were diluted to twice the desired final concentration and added in 100 µL of media for a final volume of 200 μL. Standard solutions for each compound were prepared at 1000× concentration in DMSO. The highest concentration was 30 mM. Serial 1:1 dilutions were made from there for a 6- or 9-point curve (e.g., 30 mM, 15 mM, 7.5 mM, etc). Compounds were then diluted 1:500 in media, and 100 µL of the resulting solution was added to each well for a final dilution of 1:1000. […] Cells were placed back in the incubator, and the absorbance at 490 nm was read after 2-3 hours. […] “Percent Viability” was determined by subtracting the average background value (media only) and expressed as a ratio to the average value obtained from cells treated with only DMSO.

[4] = system: XPA-1; experiment: IC50 cell-based assay, adherent cells, XPA-1; settings: Pancreas, 72 hours, read-out: IC50 of Compounds in Adherent Cell Types
Experimental: as §2

[5] = system: Z138, JeKo-1; experiment: IC50 cell-based assay, suspension cells, Z138, JeKo-1; settings: Lymphoma, Mantle cell, read-out: IC50 of Compounds in Suspension Cell Types
Experimental: as §1
In one embodiment, the IC50s of the compounds provided herein were determined in cell-based assays using suspension cells. In one embodiment, the activity of the compounds provided herein were determined in a cell-based assay using the JeKo-1 cell line (mantle cell lymphoma) or the Pfeiffer cell line (diffuse large B-cell lymphoma). In one embodiment, the suspension cells used in the cell-based assays may be a cell type selected from Table 2. Assays with suspension cells were similar except that 40,000-60,000 cells were added to each well and compounds were added immediately after cell plating.

[6] = Percent weight change of animals in MDA-MB-468 xenograft study; type: in vivo, Mouse/SCID; settings: qd 50 mg/kg IP, SCID mice
Experimental: (§3) In one embodiment, the effects of a compound provided herein on tumor growth in a mouse animal model were evaluated. In specific embodiments, the mouse animal model was the MDA-MB-468 xenograft model for breast cancer. Studies were performed to evaluate the effect of a compound provided herein on the growth of MDA-MB-468 breast tumors in mice. The test system that was used is summarized below:
(§4) Exemplary Protocol: Ten mice per group were inoculated s.c. on the left flank with 5×10^6 MDA-MB-468 cells. When tumors reached a mean volume of 100 or 200 mm^3, animals began treatment with a compound provided herein (See Table 4). Test article or vehicle were given once daily by IP injection for up to 21 days. Tumors were evaluated every Monday, Wednesday and Friday, body weights and condition were evaluated on a daily basis.
Animal Weight: All animals were weighed […] throughout the study. Group weight change was expressed as a daily group mean weight. Animals that lost greater than 20% of their total starting body weight were euthanized.
(§5) Compound 1 was dosed in mice at a dose of, for example, qd 50 mg/kg, for 22 days or more.
(§6) Compound 2 was dosed in mice at a dose of, for example, qd 20 mg/kg from day 0 to 7, then qd 10 mg/kg from day 8 and thereafter, for 22 days or more.

[7] = system: OVCAR-3; experiment: IC50 cell-based assay, adherent cells, OVCAR-3; settings: Homo sapiens, Ovarian, adenocarcinoma, 72 hours, read-out: IC50 of Compounds in Adherent Cell Types
Experimental: as §1

[8] = system: H-460; experiment: IC50 cell-based assay, adherent cells, H-460; settings: Homo sapiens, NCI-H460, Lung, large cell carcinoma, 72 hours, read-out: IC50 of Compounds in Adherent Cell Types
Experimental: as §1

[9] = system: MDA-MB-468 breast tumors; experiment: Tumor growth inhibition in MDA-MB-468 mouse xenograft model for breast cancer (tumor volume); type: in vivo; settings: qd 50 mg/kg IP, SCID mice
Experimental: as §3, §4
Cell Culture: MDA-MB-468 breast cancer cells were grown in Liebowitz's L-15 with 10% fetal bovine serum and 1% pen/strep. Cells were routinely trypsinized and passaged 1:4. On the day of implantation, cells were washed in PBS, trypsinized and resuspended in complete media. Cells were washed 3× in serum free media (centrifuged 1000 rpm for 5 min). Cells were resuspended to a density of 1×10^8 cells/mL and diluted 1:1 with Matrigel. Cells were implanted s.c. using a 23 G needle in a volume of 0.1 mL.
Tumor Measurement: Tumors were monitored daily. If, during a daily evaluation, an animal's tumor appeared to have exceeded 1500 mm^3, the tumor was measured; and animals with tumors greater than 1500 mm^3 and/or that had become necrotic and/or hindered movement were euthanized. Tumors were measured twice weekly by measuring each tumor in 2 dimensions, along the largest dimension (length, L) and perpendicular to this dimension (width, W). Tumor weights were calculated using the standard formula: (L×W^2)/2. The mean tumor weight and standard error of the mean were calculated for each group at each time point. An ANOVA was used to compare differences of primary tumor volume.
as §5, §6

IC50 [1]: < 5 µM
IC50 [2]: < 5 µM
IC50 [3]: < 5 µM
IC50 [4]: 5 to 10 µM
IC50 [5]: < 5 µM
Percent Weight Change of Control and Treated Animals, mean ([6]; Day 1): 0.00%
Percent Weight Change of Control and Treated Animals, mean ([6]; Day 2): −0.44%
Percent Weight Change of Control and Treated Animals, mean ([6]; Day 3): −1.43%
Percent Weight Change of Control and Treated Animals, mean ([6]; Day 4): −2.23%
Percent Weight Change of Control and Treated Animals, mean ([6]; Day 5): −2.06%
Percent Weight Change of Control and Treated Animals, mean ([6]; Day 6): −2.03%
Percent Weight Change of Control and Treated Animals, mean ([6]; Day 7): −3.50%
Percent Weight Change of Control and Treated Animals, mean ([6]; Day 8): −4.53%
Percent Weight Change of Control and Treated Animals, mean ([6]; Day 9): −2.38%
Percent Weight Change of Control and Treated Animals, mean ([6]; Day 10): −3.42%
Percent Weight Change of Control and Treated Animals, mean ([6]; Day 11): −1.63%
Percent Weight Change of Control and Treated Animals, mean ([6]; Day 12): 1.40%
Percent Weight Change of Control and Treated Animals, mean ([6]; Day 13): 1.13%
Percent Weight Change of Control and Treated Animals, mean ([6]; Day 14): −0.56%
Percent Weight Change of Control and Treated Animals, mean ([6]; Day 15): 2.28%
Percent Weight Change of Control and Treated Animals, mean ([6]; Day 16): 2.07%
Percent Weight Change of Control and Treated Animals, mean ([6]; Day 17): 2.03%
Percent Weight Change of Control and Treated Animals, mean ([6]; Day 18): 2.87%
Percent Weight Change of Control and Treated Animals, mean ([6]; Day 19): 4.84%
Percent Weight Change of Control and Treated Animals, mean ([6]; Day 20): 0.92%
Percent Weight Change of Control and Treated Animals, mean ([6]; Day 21): 1.87%
Percent Weight Change of Control and Treated Animals, mean ([6]; Day 22): 0.07%
IC50 [7]: < 5 µM
IC50 [8]: 10 to 20 µM
SMILES: O=C(Nc1cc(C(F)(F)F)cc(C(F)(F)F)c1)c1cc(-c2ccccc2)oc1C(F)(F)F [Compound 1, 5-Phenyl-2-trifluoromethyl-furan-3-carboxylic acid (3,5-bis-trifluoromethyl-phenyl)-amide]
Tumor Volumes in Control and Treated Animals, mean ([9]; Day 1): 112.66 mm^3
Tumor Volumes in Control and Treated Animals, mean ([9]; Day 3): 101.41 mm^3
Tumor Volumes in Control and Treated Animals, mean ([9]; Day 5): 91.44 mm^3
Tumor Volumes in Control and Treated Animals, mean ([9]; Day 8): 146.58 mm^3
Tumor Volumes in Control and Treated Animals, mean ([9]; Day 10): 175.96 mm^3
Tumor Volumes in Control and Treated Animals, mean ([9]; Day 12): 226.90 mm^3
Tumor Volumes in Control and Treated Animals, mean ([9]; Day 15): 276.23 mm^3
Tumor Volumes in Control and Treated Animals, mean ([9]; Day 17): 336.22 mm^3
Tumor Volumes in Control and Treated Animals, mean ([9]; Day 19): 366.60 mm^3
Tumor Volumes in Control and Treated Animals, mean ([9]; Day 22): 383.38 mm^3
